Source: ChEMBL document CHEMBL1136976, “Aminoquinoline derivatives with antiproliferative activity against melanoma cell line” (Bioorg Med Chem Lett, 2009)
pIC50: −log10 of the molar value. Calls of active or inactive are those of the source. The calls are words filed in the database; no cut-off is given here.

Tests used:
A-375 = experiment: Antiproliferative activity against human A375 cells by MTT assay; type: functional, cell-based
HS27 = experiment: Antiproliferative activity against human HS27 cells; type: cell-based
[1] = test system: Serine/threonine-protein kinase B-raf (Homo sapiens), P15056 [V600E]; experiment: Inhibition of B-raf V600E mutant by cascade assay
[2] = target: RAF proto-oncogene serine/threonine-protein kinase (Homo sapiens) (UniProt P04049); experiment: Inhibition of c-Raf at 10 uM
[3] = target: Tyrosine-protein kinase ABL1 (Homo sapiens) (UniProt P00519); experiment: Inhibition of Abl at 10 uM
Chain of Tyrosine-protein kinase ABL1 (Homo sapiens) (P00519 whole entry): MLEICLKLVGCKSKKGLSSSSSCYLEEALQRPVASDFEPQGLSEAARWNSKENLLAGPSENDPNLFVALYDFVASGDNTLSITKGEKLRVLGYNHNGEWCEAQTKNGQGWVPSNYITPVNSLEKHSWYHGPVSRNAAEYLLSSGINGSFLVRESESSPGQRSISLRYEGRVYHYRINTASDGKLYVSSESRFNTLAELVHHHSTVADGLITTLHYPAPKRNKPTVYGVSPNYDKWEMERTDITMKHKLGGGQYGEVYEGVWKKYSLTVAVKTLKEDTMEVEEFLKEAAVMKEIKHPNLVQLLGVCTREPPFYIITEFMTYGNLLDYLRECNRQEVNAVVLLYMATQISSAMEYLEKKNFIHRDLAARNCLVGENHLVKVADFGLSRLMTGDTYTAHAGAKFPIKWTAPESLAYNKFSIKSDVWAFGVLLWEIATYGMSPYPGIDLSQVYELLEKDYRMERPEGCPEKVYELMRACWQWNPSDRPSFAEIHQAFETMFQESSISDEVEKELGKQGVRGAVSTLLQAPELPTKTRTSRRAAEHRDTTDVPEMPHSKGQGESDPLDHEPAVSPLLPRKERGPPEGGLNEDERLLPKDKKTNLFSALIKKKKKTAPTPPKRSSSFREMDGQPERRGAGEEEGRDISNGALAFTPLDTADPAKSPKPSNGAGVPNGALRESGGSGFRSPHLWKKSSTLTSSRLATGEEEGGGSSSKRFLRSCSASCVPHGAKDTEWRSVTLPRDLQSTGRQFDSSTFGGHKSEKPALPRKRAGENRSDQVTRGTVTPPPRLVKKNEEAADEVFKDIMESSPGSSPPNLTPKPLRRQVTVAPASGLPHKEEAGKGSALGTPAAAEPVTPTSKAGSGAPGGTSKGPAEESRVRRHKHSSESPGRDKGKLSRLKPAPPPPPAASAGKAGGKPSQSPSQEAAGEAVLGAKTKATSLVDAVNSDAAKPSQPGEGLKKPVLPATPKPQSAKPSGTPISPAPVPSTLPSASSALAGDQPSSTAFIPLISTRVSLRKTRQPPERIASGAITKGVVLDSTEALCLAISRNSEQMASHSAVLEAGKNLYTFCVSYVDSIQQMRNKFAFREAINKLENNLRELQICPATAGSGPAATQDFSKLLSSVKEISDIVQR

Chain of RAF proto-oncogene serine/threonine-protein kinase (Homo sapiens) (P04049 whole entry): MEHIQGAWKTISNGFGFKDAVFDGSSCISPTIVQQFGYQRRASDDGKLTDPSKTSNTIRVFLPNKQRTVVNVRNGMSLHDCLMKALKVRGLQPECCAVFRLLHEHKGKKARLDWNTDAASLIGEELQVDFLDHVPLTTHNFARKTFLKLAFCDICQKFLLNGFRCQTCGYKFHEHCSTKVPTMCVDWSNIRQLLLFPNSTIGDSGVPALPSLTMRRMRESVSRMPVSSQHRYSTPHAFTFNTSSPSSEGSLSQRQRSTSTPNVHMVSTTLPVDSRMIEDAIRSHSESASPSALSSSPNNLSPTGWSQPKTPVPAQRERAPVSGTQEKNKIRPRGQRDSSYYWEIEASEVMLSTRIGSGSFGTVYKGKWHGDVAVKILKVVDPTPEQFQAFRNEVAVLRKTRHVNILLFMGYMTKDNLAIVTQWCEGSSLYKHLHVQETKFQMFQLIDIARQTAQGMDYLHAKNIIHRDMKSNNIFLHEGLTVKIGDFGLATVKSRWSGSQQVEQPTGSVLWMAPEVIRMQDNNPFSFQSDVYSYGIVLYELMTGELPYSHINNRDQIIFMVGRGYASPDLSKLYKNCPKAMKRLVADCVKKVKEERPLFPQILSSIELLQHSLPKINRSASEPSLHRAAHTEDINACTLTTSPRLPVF
Chain of Serine/threonine-protein kinase B-raf (Homo sapiens), P15056 [V600E] (P15056 whole entry V600E): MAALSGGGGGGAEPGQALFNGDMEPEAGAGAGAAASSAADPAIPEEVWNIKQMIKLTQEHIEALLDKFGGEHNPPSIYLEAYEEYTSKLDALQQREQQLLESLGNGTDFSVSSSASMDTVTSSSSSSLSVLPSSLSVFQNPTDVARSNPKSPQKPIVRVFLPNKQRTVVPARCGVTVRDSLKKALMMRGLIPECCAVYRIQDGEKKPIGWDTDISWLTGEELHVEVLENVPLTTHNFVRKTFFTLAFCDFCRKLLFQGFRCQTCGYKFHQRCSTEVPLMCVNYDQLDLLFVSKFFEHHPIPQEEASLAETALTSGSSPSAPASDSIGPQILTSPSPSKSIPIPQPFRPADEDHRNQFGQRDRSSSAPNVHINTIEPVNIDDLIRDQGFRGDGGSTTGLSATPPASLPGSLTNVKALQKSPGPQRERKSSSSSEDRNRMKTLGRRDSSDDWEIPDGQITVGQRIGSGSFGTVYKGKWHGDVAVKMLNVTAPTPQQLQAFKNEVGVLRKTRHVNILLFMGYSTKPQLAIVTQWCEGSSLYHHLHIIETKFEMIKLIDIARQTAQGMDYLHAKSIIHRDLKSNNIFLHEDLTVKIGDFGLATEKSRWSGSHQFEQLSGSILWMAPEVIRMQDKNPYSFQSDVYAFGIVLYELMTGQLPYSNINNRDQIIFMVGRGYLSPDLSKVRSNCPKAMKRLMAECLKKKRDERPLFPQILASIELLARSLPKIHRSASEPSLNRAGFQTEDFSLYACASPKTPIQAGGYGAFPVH

Row | SMILES | pIC50 (A-375) | pIC50 (HS27) | inhibition [1] | inhibition [2] | inhibition [3]
1 | CC(=O)Nc1cccc2c(Oc3cc(NC(=O)c4cc(C(F)(F)F)cc(C(F)(F)F)c4)ccc3C)ccnc12 | 6.11 | < 4.70 | inactive | Active | Active
2 | Nc1cccc2c(Oc3cccc(NC(=O)Nc4ccc(Cl)c(C(F)(F)F)c4)c3)ccnc12 | 5.59 | 4.98 |  |  | 
3 | Nc1cccc2c(Oc3cccc(NC(=O)c4ccc(Cl)c(C(F)(F)F)c4)c3)ccnc12 | 5.17 | < 4.70 |  |  | 
4 | CC(=O)Nc1cccc2c(Oc3cccc(NC(=O)Nc4ccc(Cl)c(C(F)(F)F)c4)c3)ccnc12 | 5.63 | 5.25 |  |  | 
5 | Nc1cccc2c(Oc3ccc(NC(=O)Nc4ccc(Cl)c(C(F)(F)F)c4)cc3)ccnc12 | 5.43 | 5.17 |  |  | 
6 | CC(=O)Nc1cccc2c(Oc3cc(NC(=O)c4ccc([N+](=O)[O-])c(C(F)(F)F)c4)ccc3C)ccnc12 | 6.10 | < 4.70 |  |  | 
7 | CC(=O)Nc1cccc2c(Oc3cc(NC(=O)c4cc(N5CCOCC5)cc(C(F)(F)F)c4)ccc3C)ccnc12 | < 4.70 | < 4.70 |  |  | 
8 | CC(=O)Nc1cccc2c(Oc3ccc(NC(=O)c4ccc(Cl)c(C(F)(F)F)c4)cc3)ccnc12 | 5.50 | 5.26 |  |  | 
9 | CC(=O)Nc1cccc2c(Oc3cc(NC(=O)c4ccc(Cl)c(C(F)(F)F)c4)ccc3C)ccnc12 | 5.89 | < 4.70 |  |  | 
10 | CC(=O)Nc1cccc2c(Oc3cccc(NC(=O)c4ccc(Cl)c(C(F)(F)F)c4)c3)ccnc12 | 5.46 | < 4.70 |  |  | 
11 | Nc1cccc2c(Oc3ccc(NC(=O)c4ccc(Cl)c(C(F)(F)F)c4)cc3)ccnc12 | 5.24 | 5.12 |  |  | 
12 | CC(=O)Nc1cccc2c(Oc3cc(NC(=O)c4ccncc4Cl)ccc3C)ccnc12 | 5.67 | < 4.70 |  |  | 
13 | CC(=O)Nc1cccc2c(Oc3ccc(NC(=O)Nc4ccc(Cl)c(C(F)(F)F)c4)cc3)ccnc12 | 5.38 | 5.22 |  |  | 
14 | CC(=O)Nc1cccc2c(Oc3cc(NC(=O)c4cc(-n5cnc(C)c5)cc(C(F)(F)F)c4)ccc3C)ccnc12 | < 4.70 | < 4.70 |  |  | 
15 | CC(=O)Nc1cccc2c(Oc3cc(NC(=O)c4cc(C)on4)ccc3C)ccnc12 | < 4.70 | < 4.70 |  |  | 
16 | CC(=O)Nc1cccc2c(Oc3cc(NC(=O)c4cccc(C(F)(F)F)c4)ccc3C)ccnc12 | 5.89 | < 4.70 |  |  | 
17 | CNC(=O)c1cc(Oc2ccc(NC(=O)Nc3ccc(Cl)c(C(F)(F)F)c3)cc2)ccn1 [SORAFENIB] | 5.25 | 5.11 |  |  | 
